According to US10131652B2, “Pyrimidinyloxy benzene derivatives as herbicides” (E. I. DU PONT DE NEMOURS AND COMPANY, priority 2014, dated 2018):
Read-outs that look alike come from different tables or passages of the source.

Key:
Assay in all cases: Test E pre-/postemergence plant response
Format in all cases: in vivo
[1] = tested on: kochia (Kochia scoparia); conditions: Bassia scoparia, scale 0 to 100, read-out: Plant response rating, Kochia; for pest or weed control at 16 g/ha: 16 g ai/ha; for pest or weed control at 31 g/ha: 31 g ai/ha; for pest or weed control at 62 g/ha: 62 g ai/ha; for pest or weed control at 125 g/ha: 125 g ai/ha
Method in brief: (§1)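 Visual scores on a 0–100 scale (100 = complete control) were assigned against untreated controls 7–21 days after treatment in a controlled environment. Compounds, formulated with solvent plus surfactant, were applied to pre-emergence silt-loam sowings or to 1- to 4-leaf plants (2–18 cm) in potting medium.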

[2] = tested on: field poppy (Papaver rhoeas); conditions: scale 0 to 100, read-out: Plant response rating, Field Poppy; for pest or weed control at 16 g/ha: 16 g ai/ha; for pest or weed control at 31 g/ha: 31 g ai/ha; for pest or weed control at 62 g/ha: 62 g ai/ha; for pest or weed control at 125 g/ha: 125 g ai/ha
Method in brief: as §1

[3] = tested on: deadnettle (henbit deadnettle, Lamium amplexicaule); conditions: scale 0 to 100, read-out: Plant response rating, Deadnettle; for pest or weed control at 16 g/ha: 16 g ai/ha; for pest or weed control at 31 g/ha: 31 g ai/ha; for pest or weed control at 62 g/ha: 62 g ai/ha; for pest or weed control at 125 g/ha: 125 g ai/ha
Method in brief: as §1

[4] = tested on: wild buckwheat (Polygonum convolvulus); conditions: Fallopia convolvulus, scale 0 to 100, read-out: Plant response rating, Buckwheat, Wild; for pest or weed control at 16 g/ha: 16 g ai/ha; for pest or weed control at 31 g/ha: 31 g ai/ha; for pest or weed control at 62 g/ha: 62 g ai/ha; for pest or weed control at 125 g/ha: 125 g ai/ha
Method in brief: as §1

[5] = tested on: windgrass (Apera spica-venti); conditions: scale 0 to 100, read-out: Plant response rating, Windgrass; for pest or weed control at 16 g/ha: 16 g ai/ha; for pest or weed control at 62 g/ha: 62 g ai/ha; for pest or weed control at 125 g/ha: 125 g ai/ha
Method in brief: as §1

[6] = tested on: chamomile (scentless chamomile, Matricaria inodora); conditions: Tripleurospermum inodorum, post-emergence, Postemergence, scale 0 to 100, read-out: Plant response rating, Chamomile
Method in brief: as §1

[7] = tested on: wild radish (Raphanus raphanistrum); conditions: scale 0 to 100, read-out: Plant response rating, Radish, Wild; for pest or weed control at 16 g/ha: 16 g ai/ha; for pest or weed control at 31 g/ha: 31 g ai/ha; for pest or weed control at 62 g/ha: 62 g ai/ha; for pest or weed control at 125 g/ha: 125 g ai/ha
Method in brief: as §1

[8] = tested on: speedwell (bird's-eye speedwell, Veronica persica); conditions: scale 0 to 100, read-out: Plant response rating, Speedwell; for pest or weed control at 16 g/ha: 16 g ai/ha; for pest or weed control at 62 g/ha: 62 g ai/ha; for pest or weed control at 125 g/ha: 125 g ai/ha
Method in brief: as §1

[9] = tested on: wild oat (Avena fatua); conditions: scale 0 to 100, read-out: Plant response rating, Oat, Wild; for pest or weed control at 16 g/ha: 16 g ai/ha; for pest or weed control at 31 g/ha: 31 g ai/ha; for pest or weed control at 62 g/ha: 62 g ai/ha; for pest or weed control at 125 g/ha: 125 g ai/ha
Method in brief: as §1

[10] = tested on: wild mustard (Sinapis arvensis); conditions: Brassica, scale 0 to 100, read-out: Plant response rating, Mustard, Wild; for pest or weed control at 16 g/ha: 16 g ai/ha; for pest or weed control at 31 g/ha: 31 g ai/ha; for pest or weed control at 62 g/ha: 62 g ai/ha; for pest or weed control at 125 g/ha: 125 g ai/ha
Method in brief: as §1

[11] = tested on: downy bromegrass (Bromus tectorum); conditions: scale 0 to 100, read-out: Plant response rating, Bromegrass, Downy; for pest or weed control at 16 g/ha: 16 g ai/ha; for pest or weed control at 31 g/ha: 31 g ai/ha; for pest or weed control at 62 g/ha: 62 g ai/ha; for pest or weed control at 125 g/ha: 125 g ai/ha
Method in brief: as §1

[12] = post-emergence, 31 g ai/ha, Postemergence

With `FC(F)c1cc(-c2ccccc2Oc2ncc(Cl)cn2)on1` [Compound 53, 5-chloro-2-[2-[3-(difluoromethyl)-5-isoxazolyl]phenoxy]pyrimidine] the pest or weed control at 16 g/ha ([1]; post-emergence, Postemergence) was 50%, the pest or weed control at 31 g/ha ([1]; post-emergence, Postemergence) was 55% and the pest or weed control at 62 g/ha ([1]; post-emergence, Postemergence) was 70%. The pest or weed control at 125 g/ha ([1]; post-emergence, Postemergence) was 80%, the pest or weed control at 16 g/ha ([1]; pre-emergence, Preemergence) was 10% and the pest or weed control at 31 g/ha ([1]; pre-emergence, Preemergence) was 15%. The pest or weed control at 62 g/ha ([1]; pre-emergence, Preemergence) was 55%, the pest or weed control at 125 g/ha ([1]; pre-emergence, Preemergence) was 100% and the pest or weed control at 16 g/ha ([2]; post-emergence, Postemergence) was 60%. It also gave a pest or weed control at 31 g/ha ([2]; post-emergence, Postemergence) of 65%, a pest or weed control at 62 g/ha ([2]; post-emergence, Postemergence) of 80% and a pest or weed control at 125 g/ha ([2]; post-emergence, Postemergence) of 80%. The pest or weed control at 16 g/ha ([2]; pre-emergence, Preemergence) was 100%, the pest or weed control at 31 g/ha ([2]; pre-emergence, Preemergence) was 100% and the pest or weed control at 62 g/ha ([2]; pre-emergence, Preemergence) was 100%. The pest or weed control at 125 g/ha ([2]; pre-emergence, Preemergence) was 100%, the pest or weed control at 16 g/ha ([3]; post-emergence, Postemergence) was 20% and the pest or weed control at 31 g/ha ([3]; post-emergence, Postemergence) was 30%. For the same molecule, the pest or weed control at 62 g/ha ([3]; post-emergence, Postemergence) was 60%, the pest or weed control at 125 g/ha ([3]; post-emergence, Postemergence) was 65% and the pest or weed control at 16 g/ha ([3]; pre-emergence, Preemergence) was 10%. The pest or weed control at 31 g/ha ([3]; pre-emergence, Preemergence) was 10%, the pest or weed control at 62 g/ha ([3]; pre-emergence, Preemergence) was 50% and the pest or weed control at 125 g/ha ([3]; pre-emergence, Preemergence) was 65%. For the same molecule, the pest or weed control at 16 g/ha ([4]; post-emergence, Postemergence) was 70%, the pest or weed control at 31 g/ha ([4]; post-emergence, Postemergence) was 65% and the pest or weed control at 62 g/ha ([4]; post-emergence, Postemergence) was 90%. It also gave a pest or weed control at 125 g/ha ([4]; post-emergence, Postemergence) of 95%, a pest or weed control at 16 g/ha ([4]; pre-emergence, Preemergence) of 65% and a pest or weed control at 31 g/ha ([4]; pre-emergence, Preemergence) of 100%. It also gave a pest or weed control at 62 g/ha ([4]; pre-emergence, Preemergence) of 100%, a pest or weed control at 125 g/ha ([4]; pre-emergence, Preemergence) of 100% and a pest or weed control at 16 g/ha ([5]; post-emergence, Postemergence) of 5%. It also gave a pest or weed control at 31 g/ha [5, 12] of 5%, a pest or weed control at 62 g/ha ([5]; post-emergence, Postemergence) of 10% and a pest or weed control at 125 g/ha ([5]; post-emergence, Postemergence) of 20%. For the same molecule, the pest or weed control at 16 g/ha ([5]; pre-emergence, Preemergence) was 0%, the pest or weed control at 62 g/ha ([5]; pre-emergence, Preemergence) was 35% and the pest or weed control at 125 g/ha ([5]; pre-emergence, Preemergence) was 50%. It also gave a pest or weed control at 16 g/ha ([6]; 16 g ai/ha) of 5%, a pest or weed control at 31 g/ha ([6]; 31 g ai/ha) of 5% and a pest or weed control at 62 g/ha ([6]; 62 g ai/ha) of 5%. For the same molecule, the pest or weed control at 125 g/ha ([6]; 125 g ai/ha) was 0%, the pest or weed control at 16 g/ha ([7]; post-emergence, Postemergence) was 60% and the pest or weed control at 31 g/ha ([7]; post-emergence, Postemergence) was 60%. It also gave a pest or weed control at 62 g/ha ([7]; post-emergence, Postemergence) of 90%, a pest or weed control at 125 g/ha ([7]; post-emergence, Postemergence) of 90% and a pest or weed control at 16 g/ha ([7]; pre-emergence, Preemergence) of 50%. For the same molecule, the pest or weed control at 31 g/ha ([7]; pre-emergence, Preemergence) was 70%, the pest or weed control at 62 g/ha ([7]; pre-emergence, Preemergence) was 100% and the pest or weed control at 125 g/ha ([7]; pre-emergence, Preemergence) was 90%. For the same molecule, the pest or weed control at 16 g/ha ([8]; post-emergence, Postemergence) was 60%, the pest or weed control at 31 g/ha [8, 12] was 60% and the pest or weed control at 62 g/ha ([8]; post-emergence, Postemergence) was 95%. For the same molecule, the pest or weed control at 125 g/ha ([8]; post-emergence, Postemergence) was 100%, the pest or weed control at 16 g/ha ([8]; pre-emergence, Preemergence) was 100% and the pest or weed control at 62 g/ha ([8]; pre-emergence, Preemergence) was 100%. For the same molecule, the pest or weed control at 125 g/ha ([8]; pre-emergence, Preemergence) was 100%, the pest or weed control at 16 g/ha ([9]; post-emergence, Postemergence) was 5% and the pest or weed control at 31 g/ha ([9]; post-emergence, Postemergence) was 5%. It also gave a pest or weed control at 62 g/ha ([9]; post-emergence, Postemergence) of 10%, a pest or weed control at 125 g/ha ([9]; post-emergence, Postemergence) of 25% and a pest or weed control at 16 g/ha ([9]; pre-emergence, Preemergence) of 0%. It also gave a pest or weed control at 31 g/ha ([9]; pre-emergence, Preemergence) of 0%, a pest or weed control at 62 g/ha ([9]; pre-emergence, Preemergence) of 10% and a pest or weed control at 125 g/ha ([9]; pre-emergence, Preemergence) of 25%. It also gave a pest or weed control at 16 g/ha ([10]; post-emergence, Postemergence) of 65%, a pest or weed control at 31 g/ha ([10]; post-emergence, Postemergence) of 75% and a pest or weed control at 62 g/ha ([10]; post-emergence, Postemergence) of 95%. For the same molecule, the pest or weed control at 125 g/ha ([10]; post-emergence, Postemergence) was 95%, the pest or weed control at 16 g/ha ([10]; pre-emergence, Preemergence) was 90% and the pest or weed control at 31 g/ha ([10]; pre-emergence, Preemergence) was 100%. The pest or weed control at 62 g/ha ([10]; pre-emergence, Preemergence) was 100%, the pest or weed control at 125 g/ha ([10]; pre-emergence, Preemergence) was 100% and the pest or weed control at 16 g/ha ([11]; post-emergence, Postemergence) was 0%. The pest or weed control at 31 g/ha ([11]; post-emergence, Postemergence) was 0%, the pest or weed control at 62 g/ha ([11]; post-emergence, Postemergence) was 5% and the pest or weed control at 125 g/ha ([11]; post-emergence, Postemergence) was 5%. It also gave a pest or weed control at 16 g/ha ([11]; pre-emergence, Preemergence) of 0%, a pest or weed control at 31 g/ha ([11]; pre-emergence, Preemergence) of 15% and a pest or weed control at 62 g/ha ([11]; pre-emergence, Preemergence) of 15%. It also gave a pest or weed control at 125 g/ha ([11]; pre-emergence, Preemergence) of 15%.
